# From article PMC5307958 (Scientific Reports, 2017)
# “Also recorded” adds a separate entry of the source. Where a SMILES comes first, the peptide text is derived from it. Bridges are numbered along the chain shown (N, C = ends).
# Experiments:
# [1] = test system: slo-1 null worms (NM1968, js379); test: C. elegans crawl speed, slo-1 null; assay type: in vivo, Caenorhabditis elegans; conditions: for effect on crawl speed (LS3 reduced crawl speed for wild type but not slo-1(null)): 30 min
# Experimental: (§1) Worms were cultivated at 20 °C as described with OP50 bacteria. Worms cultured on plates contaminated with fungi or other bacteria were excluded from this study. The reference wild-type strain was N2 Bristol. The reference slo-1(null) strain and background for transgenic strains was NM1968, harboring the previously characterized null allele, js379[29]. Multi-site gateway technology (Invitrogen) was used to construct plasmids. […] of the native slo-1 promoter (Pslo-1) and the traditional unc-54 UTR were used in combination with slo-1a(cDNA)::mCherry for a rescue construct. To test rescue with the human BK channel, an hslo(ZERO isoform, cDNA)::mCherry version was constructed. The slo-1(+) and hslo(+) plasmids were injected at a concentration of 20 and 10 ng/μl, respectively. The co-injection reporter PCFJ90 (1.25 ng/μl) was used to ensure proper transformation of the arrays. As such, JPS345 carried vxEx345, an extrachromosomal array containing [Pslo-1::slo-1::mCherry::unc-54UTR,Pmyo-2::mCherry::unc-54UTR]. JPS340 carried […], an extrachromosomal array containing [Pslo-1::hslo::mCherry::unc-54UTR,Pmyo-2::mCherry::unc-54UTR].
# Age-matched day one adults were cleaned of bacteria by letting them crawl around on an unseeded plate and then moved into a puddle of NGM or peptide dissolved in NGM on another unseeded plate. NGM and peptide treatment groups were always run in tandem to control for behavioral variance. While much shorter than typical drug applications in C. elegans, brief application in liquid was chosen to avoid potential catabolic by-products of incubation on metabolically active E. coli. Higher LS3 concentrations were used to compensate. The puddle was refreshed 1–2 times as needed, but let to fully absorb into the agar by 30 minutes. After 30 minutes, crawl behavior was videoed (Flea2 camera, Point Grey Research, Canada; StreamPix 3, NorPix, Canada). Copper rings restricted movement to a proscribed area. The worms were tracked offline using custom macros (Image-Pro, MediaCybernetics, Rockville, MD) for 1 minute to obtain crawl speed (cm/min). Group means ± SEM for peptide-treated vs. vehicle-treated controls were compared at each concentration with Student’s t-tests. Rescue analysis was completed with two-way ANOVA (SigmaPlot, San Jose, CA). Crawl speeds for the peptide treated groups were also normalized to the performance of yoked controls. Normalized group means±SEM were compared vs. slo-1 null performance by two-way ANOVA.
# [2] = test system: slo-1(+) worm BK channel gene expressed in slo-1(null) worms; test: C. elegans crawl speed, slo-1(+) rescue on slo-1 null background; assay type: in vivo, Caenorhabditis elegans; conditions: 750 μM LS3, 30 min; transgenic slo-1(+) on slo-1(null) background; vs. slo-1(null): p < 0.001, N = 78–162
# Experimental: as §1
# Age-matched day one adults were cleaned of bacteria by letting them crawl around on an unseeded plate and then moved into a puddle of NGM or peptide dissolved in NGM on another unseeded plate. […]
# [3] = test system: mAcetylcholine M3; test: Competition radioligand binding (NIMH PDSP); conditions: radioligand QNB, measured 4 times
# [4] = Blood-brain barrier crossing inferred from functional activity in the IC; assay type: in vivo, mouse; conditions: inferred from suppression of sound evoked activity after topical (dura) or systemic (0.3 mg/kg I.P.) administration
# Experimental: The temperature was maintained near 25 °C.
# [5] = test system: human BKα channel ZERO isoform expressed in HEK293 cells; test: Phagemid display selection (panning); assay type: binding
# Excerpt: A monovalent phagemid display library (library C, Mobitec) was sequentially panned against three sets of HEK293 cells (see below). For negative selection, cells expressed the human glycine receptor α1 (hGlyRα1, X52009) and the rat small conductance calcium-activated channel 2 (rSK2, U69882.1). For positive selection, cells expressed the human BKα channel ZERO isoform (NM_002238). The progress of the selection process was monitored after each panning round by titering and sequencing the phagemid DNA. With 6 randomized and 3 fixed amino acids, this library started with 3 × 10^7 unique sequences. LS3 was selected as one of the sequences expressing motifs that were enriched more than 1000 -fold. LS3 was synthesized as a TFA salt at 98–99% purity verified by HPLC and MS analysis (Genscript, Piscataway, NJ). Stocks were dissolved in water at 10 mM and aliquots were lyophilized and stored at −80 °C. As a secondary determination of identity and purity, in-house LC/MS was performed on a single quadrupole Mass Spectrophotometer (Agilent 6130) interfaced with a HPLC with a diode-array (UV-vis) detector (Agilent 1200).
# HEK293 cells (ATCC, Manassas, VA) were grown according to standard procedures. Cells were cultured at 37 °C in a 5% CO2 atmosphere in Dulbecco’s modified Eagle’s medium with L-glutamine, sodium pyruvate and 10% fetal bovine serum (Invitrogen). Cell lines were split with trypsin/EDTA in Hanks’ balanced salt solution (Invitrogen) up to 25–30 cycles. For phage display, stable lines stably expressed rSK2 or hBKα ZERO isoform. Cells were transfected (Lipofectamine 2000, Invitrogen) with hGlyRα1 and used 48 hours later. For electrophysiological recordings, cells were transfected with hBKα ZERO isoform. Enhanced green fluorescent protein (EGFP) was cotransfected as a marker. Electrophysiological recordings were made 16–72 h after transfection. […]
# [6] = phage-displayed sequence CRRGLVQVC
structure (smiles),measurement,setting,value
CC(C)C[C@@H]1NC(=O)CNC(=O)[C@H](CCCNC(=N)N)NC(=O)[C@H](CCCNC(=N)N)NC(=O)[C@@H](N)CSSC[C@@H](C(=O)O)NC(=O)[C@H](C(C)C)NC(=O)[C@H](CCC(N)=O)NC(=O)[C@H](C(C)C)NC1=O [LS3] (H-CRRGLVQVC-OH; disulfide 1-9; N-terminus and C-terminus assumed),effect on crawl speed (LS3 reduced crawl speed for wild type but not slo-1(null)),[1]; 75 µM LS3 vs. vehicle,not
same,effect on crawl speed (LS3 reduced crawl speed for wild type but not slo-1(null)),[1]; 250 µM LS3 vs. vehicle,not
same,effect on crawl speed (LS3 reduced crawl speed for wild type but not slo-1(null)),[1]; 750 µM LS3 vs. vehicle,not
same,effect on crawl speed,"[1]; slo-1 null, LS3 in NGM, 30 min bath, normalized to vehicle-treated controls",did not significantly slow
same,LS3-induced slowing response (reduction in crawl speed),[2],rescued
same,% inhibition by 10 µM LS3,[3],11.5%
same,ability to cross the BBB,[4],can cross the BBB; also recorded: rapidly crosses the BBB after systemic delivery; also recorded: crosses the blood-brain barrier (BBB)
same,enrichment of motifs expressed by the sequence,[5]; criterion for selection of LS3,more than 1000 fold
same,enrichment of motif RRXXXXV during selection,[5]; [6],~ 4000 fold
same,enrichment of motif XRGXXXV during selection,[5]; [6],~ 3000 fold
